Among the data in PubChem BioAssay (NCI) are GI50 and TGI values, retold here.

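Cells were grown in 96-well plates and exposed to each compound for 48 hours at five concentrations; endpoints were interpolated linearly between bracketing concentrations, or set to the highest concentration if not reached. At the GI50, growth is halved. TGI is the concentration that stops growth completely.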 Bounds are passed on as bounds.

Assay in all cases: NCI tumour cell line growth inhibition, 48 h
The test system of assay [1] is PC-3 prostate.
In assay [2] the test system is HS 578T breast.
Assay [3] concerns NCI/ADR-RES ovarian.
Assay [4] concerns MDA-MB-231 breast.
Assay [5] deals with MDA-N.
Assay [6] has as its system M19-MEL melanoma.
In assay [7] the test system is RXF-631 renal.
The test system of assay [8] is LXFL 529 NSCLC.
In assay [9] the test system is DMS 273 small cell lung.
Assay [10] concerns P388/ADR leukemia.
The test system of assay [11] is P388 leukemia.
For assay [12], the system named is SN12K1 renal.

On to `COc1cc2c(cc1OCCCOc1cc3c(cc1OC)C(=O)N1CC(F)(F)C[C@H]1C=N3)N=C[C@@H]1CC(F)(F)CN1C2=O`, for which the GI50 in assay [1] was 1.28 µM; in assay [2], 3.13 µM; in assay [3], 21.4 µM; in [4], 1.31 µM. Further, the TGI is 9.9 µM in assay [1], 15.3 µM in assay [2], over 84 µM in assay [3] and 6.77 µM in [4].
On to `COc1ccc2c(c1)C(=O)c1c-2n(CCCCl)c(=O)c2cc([N+](=O)[O-])ccc12`, for which the GI50 in assay [1] is 1.68 µM; in assay [2], over 68.9 µM; in assay [3], 0.0815 µM. The results for the TGI in assay [1], in assay [2] and in [4] were over 100 µM, over 100 µM and over 46 µM, respectively.
Turning to `N=C(N)SC(c1ccccc1)c1ccccc1`, the TGI was 27.3 µM in assay [1]; over 100 µM in assay [2]; 47 µM in assay [3]; 26.5 µM in assay [5]; 33.5 µM in [4].
The corresponding values for `NS(=O)(=O)c1ccc(C(=O)O)cc1` are over 100 µM, over 100 µM, over 100 µM, over 100 µM and over 100 µM.
On to `CC(C)(c1ccccc1)c1ccc(Oc2ccc3c(c2)-c2nc-3nc3[nH]c(nc4nc(nc5[nH]c(n2)c2ccc(Oc6ccc(C(C)(C)c7ccccc7)cc6)cc52)-c2cc(Oc5ccc(C(C)(C)c6ccccc6)cc5)ccc2-4)c2ccc(Oc4ccc(C(C)(C)c5ccccc5)cc4)cc32)cc1`, for which the TGI in assay [6], in assay [7], in assay [8] and in [9] was over 100 µM throughout.
For `Cc1cccc(NC(N)=S)c1`, the TGI in assay [6], in assay [7] and in assay [8] was over 100 µM in each case.
As to `O=C(Nc1ccc(-n2ccc3c(NC(=O)c4ccccc4)ncnc32)cc1)Nc1ccc(Cl)c(C(F)(F)F)c1`, the GI50 in assay [1] is 1.25 µM; in assay [2], 1.27 µM; in assay [3], 2.41 µM; in assay [4], 1.55 µM. Besides, the TGI turned out to be 3.01 µM in assay [1], 4.61 µM in assay [2], 8.55 µM in [3] and 3.66 µM in assay [4].
Consider `CCc1cc(C)cc2[n+]1CC=C2C`, for which the TGI in assay [6], in [8] and in assay [9] was over 100 µM each time.
Take `CN(C)C=O.CN(C)C=O.CN1C(C(=O)Nc2ccccn2)=C([O-])c2ccccc2S1(=O)=O.CN1C(C(=O)Nc2ccccn2)=C([O-])c2ccccc2S1(=O)=O.[Cu+2]`: the GI50 in assay [6] was 31 µM; in assay [7], 87.4 µM; in assay [8] it was 27.8 µM; in assay [9] it was 35.9 µM. Besides, the TGI in assay [6], in [7], in [8] and in assay [9] was over 100 µM in each case.
On to `COc1ccc(C(=O)NNC(=O)c2nsc3ccccc23)cc1`, for which the TGI in assay [6], in assay [8] and in assay [9] was over 100 µM in each case.
For `COC(=O)C12OCC34C(CC5C(C)C6=CC(=O)OC6=CC5(C)C3C(O)C1O)OC(=O)C(OC(C)=O)C24` (stereo not given), the TGI in assay [6] is 40.9 µM; in [7] it was 33.9 µM; in [8], 31.5 µM; in assay [9] it was 30.2 µM.
`O=C1CC(c2ccccc2)NCCCCN2CC(CN1)C(C(O)c1ccccc1)C2=O` (stereo not given): the TGI in assay [1], in assay [2], in assay [3], in [5] and in assay [4] was over 100 µM throughout.
On to `CC1(C)CCCC2(C)C3=C(CCC12)C(=O)OC3` (stereo not given), for which the TGI in [1], in assay [2], in [3], in [5] and in assay [4] was over 100 µM in each case.
Turning to `NC(CCCNc1ccc(O)cc1)C(=O)O` (stereo not given), the TGI was 32.7 µM in [6], over 100 µM in assay [7], 33.3 µM in assay [8] and over 100 µM in assay [9].
Take `Cc1cc(N2CCCCC2)nc(NCc2cc(Nc3ccnc4cc(Cl)ccc34)ccc2F)n1`: the GI50 was 1.9 µM in assay [1], 2.03 µM in assay [2], 2 µM in assay [3] and 1.81 µM in [4]. Moreover, the TGI was 4.04 µM in assay [1], 4.62 µM in [2], 4.74 µM in [3] and 3.5 µM in assay [4].
On to `NCc1ccc(O)c(O)c1O`, for which the TGI in assay [6] was 26.9 µM; in assay [1], over 100 µM; in [2] it was 54.9 µM; in [8], 30.6 µM; in [4], 43.5 µM; in assay [9], 31 µM.
With `Cn1c(=O)c2c(nc(N3CCOCC3)n2CCCNCC(O)c2ccc(O)c(O)c2)n(C)c1=O` (stereo not given), the TGI in assay [1], in assay [2], in assay [3] and in [4] was over 100 µM throughout.
As to `Cc1nc2ccccc2c(=O)n1Nc1ccc(C(=O)O)cc1`, the TGI in assay [10], in assay [6], in assay [11], in [3], in [12] and in assay [9] was over 100 µM throughout.
As for `CC(C)C(C)C(O)C(O)C(C)C1CCC2C3COC(=O)C4CC(O)C(O)CC4(C)C3CCC12C` (stereo not given), the TGI in assay [1], in assay [2], in assay [3], in [5] and in assay [4] was over 100 µM in each case.
